Reference: US20260062387A1, “SALT-INDUCIBLE KINASE INHIBITOR COMPOUND AND PHARMACEUTICAL COMPOSITION INCLUDING THE SAME” (MITSUBISHI TANABE PHARMA CORPORATION, priority 2023, published 2026)

How the values were obtained:
Format in all cases: biochemical
GST-tagged SIK1 = GST-tagged SIK1 (Homo sapiens (Human), UniProt P57059); experiment: SIK1 inhibition test (ADP-Glo Max Assay); conditions: enzyme 20 nM, AMARA Peptide 200 μM, ATP 1 mM, 2 hours room temperature
Experimental: (§1) The compounds described in Examples above were used in the SIK1, SIK2, and SIK3 inhibition test.
(§2) The inhibitory activity of the compound for SIK1, SIK2, and SIK3 enzymes was assayed by measuring the amount of ADP, an enzyme reaction product, with ADP-Glo™ Max Assay (Promega). Enzymes, specifically, GST-tagged SIK1 (Carna Biosciences, Inc.), GST-tagged SIK2 (Carna Biosciences, Inc.), and GST-tagged SIK3 (SignalChem) were prepared in a reaction buffer (15 mM tris-hydrochloric acid buffer (pH 7.5), 0.001% Triton X-100, 0.01% BSA) so that the final concentration would be 20 nM, 3 nM, and 100 nM. Enzyme solutions were thus formed. In a reaction buffer, AMARA Peptide (SignalChem) as a substrate with a final concentration of 200 μM (SIK1, SIK2) or 100 μM (SIK3), ATP (Promega) with a final concentration of 1 mM, and magnesium chloride with a final concentration of 5 mM were prepared. Substrate solutions were thus formed. The enzyme solution, the substrate solution, and a DMSO solution of a concentration of the test compound were mixed together and reacted at room temperature for 2 hours. After the reaction, ADP-Glo™ Reagent (Promega) was added, and the reaction was performed at room temperature for 30 minutes. Subsequently, ADP-Glo™ Max Detection Reagent (Promega) was added, and the reaction was performed at room temperature for 30 minutes. The emission by the luciferase reaction was measured with PHERAstar FSX (BMG LABTECH).
(§3) The inhibitory ratio (%) was calculated by: % Inhibition={1−(intensity of sample−intensity of blank (no enzyme solution added))/(intensity of control (DMSO alone)−intensity of blank)}×100. The inhibitory concentration IC50 was calculated based on 16 data values obtained in the concentration response test.

GST-tagged SIK2 = GST-tagged SIK2 (Homo sapiens (Human), UniProt Q9H0K1); experiment: SIK2 inhibition test (ADP-Glo Max Assay); conditions: enzyme 3 nM, AMARA Peptide 200 μM, ATP 1 mM, 2 hours room temperature
GST-tagged SIK2, sequence (Q9H0K1 whole entry): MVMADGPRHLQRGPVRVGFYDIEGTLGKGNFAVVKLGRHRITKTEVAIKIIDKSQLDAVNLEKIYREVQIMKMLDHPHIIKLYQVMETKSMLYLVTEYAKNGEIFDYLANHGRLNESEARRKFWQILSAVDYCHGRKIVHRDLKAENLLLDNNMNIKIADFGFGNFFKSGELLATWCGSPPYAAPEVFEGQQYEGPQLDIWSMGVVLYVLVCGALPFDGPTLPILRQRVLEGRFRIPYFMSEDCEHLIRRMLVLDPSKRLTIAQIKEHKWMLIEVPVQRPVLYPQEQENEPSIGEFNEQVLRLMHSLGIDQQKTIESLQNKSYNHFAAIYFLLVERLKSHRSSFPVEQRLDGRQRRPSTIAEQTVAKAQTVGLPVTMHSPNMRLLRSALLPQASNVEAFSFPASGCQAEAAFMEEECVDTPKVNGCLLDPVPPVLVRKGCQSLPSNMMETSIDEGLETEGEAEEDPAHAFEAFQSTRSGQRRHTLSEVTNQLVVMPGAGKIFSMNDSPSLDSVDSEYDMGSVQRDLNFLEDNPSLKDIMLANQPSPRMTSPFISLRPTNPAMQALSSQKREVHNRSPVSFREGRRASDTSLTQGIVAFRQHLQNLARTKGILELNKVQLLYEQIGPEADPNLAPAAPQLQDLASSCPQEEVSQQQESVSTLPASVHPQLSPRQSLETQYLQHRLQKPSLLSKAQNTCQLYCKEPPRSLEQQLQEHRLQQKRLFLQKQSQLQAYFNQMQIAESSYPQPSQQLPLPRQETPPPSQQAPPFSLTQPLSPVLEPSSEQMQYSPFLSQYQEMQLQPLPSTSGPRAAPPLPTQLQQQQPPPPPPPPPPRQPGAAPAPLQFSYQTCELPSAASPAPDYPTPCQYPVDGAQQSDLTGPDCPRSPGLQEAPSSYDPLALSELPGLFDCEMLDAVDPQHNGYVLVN
Experimental: as §1, §2, §3

GST-tagged SIK3 = GST-tagged SIK3 (Homo sapiens (Human), UniProt Q9Y2K2); experiment: SIK3 inhibition test (ADP-Glo Max Assay); conditions: enzyme 100 nM, AMARA Peptide 100 μM, ATP 1 mM, 2 hours room temperature
GST-tagged SIK3, sequence (Q9Y2K2 whole entry): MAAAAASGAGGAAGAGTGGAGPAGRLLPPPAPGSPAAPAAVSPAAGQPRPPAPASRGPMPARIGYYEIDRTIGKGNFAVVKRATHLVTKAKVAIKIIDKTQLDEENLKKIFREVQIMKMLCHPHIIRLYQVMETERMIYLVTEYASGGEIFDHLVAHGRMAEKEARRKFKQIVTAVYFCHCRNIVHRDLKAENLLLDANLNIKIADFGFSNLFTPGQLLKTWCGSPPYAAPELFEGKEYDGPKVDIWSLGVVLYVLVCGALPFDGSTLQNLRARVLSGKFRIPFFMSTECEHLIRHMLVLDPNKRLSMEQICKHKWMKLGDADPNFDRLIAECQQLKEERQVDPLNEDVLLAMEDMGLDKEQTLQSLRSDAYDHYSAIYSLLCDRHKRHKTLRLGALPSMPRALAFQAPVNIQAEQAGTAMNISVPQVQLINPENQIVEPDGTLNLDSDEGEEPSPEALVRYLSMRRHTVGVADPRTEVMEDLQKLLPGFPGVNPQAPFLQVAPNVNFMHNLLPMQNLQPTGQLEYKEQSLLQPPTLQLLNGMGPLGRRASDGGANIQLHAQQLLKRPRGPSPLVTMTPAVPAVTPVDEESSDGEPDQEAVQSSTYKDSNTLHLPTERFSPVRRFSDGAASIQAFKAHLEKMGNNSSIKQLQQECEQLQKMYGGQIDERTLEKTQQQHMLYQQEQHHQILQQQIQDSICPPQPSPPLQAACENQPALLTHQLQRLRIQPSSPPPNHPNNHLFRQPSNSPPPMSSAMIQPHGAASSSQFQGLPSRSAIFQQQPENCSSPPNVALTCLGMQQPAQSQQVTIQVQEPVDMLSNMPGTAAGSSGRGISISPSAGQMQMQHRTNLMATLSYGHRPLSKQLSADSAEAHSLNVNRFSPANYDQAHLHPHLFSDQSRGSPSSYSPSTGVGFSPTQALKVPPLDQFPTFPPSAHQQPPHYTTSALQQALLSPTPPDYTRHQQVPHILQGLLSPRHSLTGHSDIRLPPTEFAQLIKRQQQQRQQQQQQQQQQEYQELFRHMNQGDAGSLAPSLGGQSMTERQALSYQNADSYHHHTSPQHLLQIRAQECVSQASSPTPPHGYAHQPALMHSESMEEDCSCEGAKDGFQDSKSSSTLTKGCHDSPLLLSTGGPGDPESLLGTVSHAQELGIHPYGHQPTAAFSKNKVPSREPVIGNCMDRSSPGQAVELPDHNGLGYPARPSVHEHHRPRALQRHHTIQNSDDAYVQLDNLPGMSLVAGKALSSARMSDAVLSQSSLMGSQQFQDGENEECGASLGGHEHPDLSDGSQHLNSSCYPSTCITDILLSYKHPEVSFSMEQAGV
Experimental: as §1, §2, §3

GST-tagged SIK1, sequence (P57059 whole entry): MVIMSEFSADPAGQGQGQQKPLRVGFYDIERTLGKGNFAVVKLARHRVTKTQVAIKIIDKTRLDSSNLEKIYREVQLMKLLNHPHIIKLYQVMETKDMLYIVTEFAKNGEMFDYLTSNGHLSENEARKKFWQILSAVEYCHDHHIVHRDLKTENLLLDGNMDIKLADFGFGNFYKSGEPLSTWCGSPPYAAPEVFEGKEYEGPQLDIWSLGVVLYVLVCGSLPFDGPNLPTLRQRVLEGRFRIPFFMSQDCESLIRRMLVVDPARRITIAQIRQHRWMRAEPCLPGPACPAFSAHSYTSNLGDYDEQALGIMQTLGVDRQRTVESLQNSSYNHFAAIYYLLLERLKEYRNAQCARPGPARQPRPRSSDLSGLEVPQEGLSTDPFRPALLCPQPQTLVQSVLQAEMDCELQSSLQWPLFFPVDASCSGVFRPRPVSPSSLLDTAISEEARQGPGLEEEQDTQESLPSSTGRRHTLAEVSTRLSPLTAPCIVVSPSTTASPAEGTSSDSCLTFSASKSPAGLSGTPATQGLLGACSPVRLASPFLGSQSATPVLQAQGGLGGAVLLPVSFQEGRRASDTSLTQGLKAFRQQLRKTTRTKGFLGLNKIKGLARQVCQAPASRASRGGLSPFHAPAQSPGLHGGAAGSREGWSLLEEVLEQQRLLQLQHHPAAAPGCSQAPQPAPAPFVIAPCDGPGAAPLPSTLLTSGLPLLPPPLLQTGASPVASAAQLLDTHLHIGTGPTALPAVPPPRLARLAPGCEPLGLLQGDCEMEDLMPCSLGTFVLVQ

| SMILES | IC50 (GST-tagged SIK1) [nM] | IC50 (GST-tagged SIK2) [nM] | IC50 (GST-tagged SIK3) [nM] |
| --- | --- | --- | --- |
| COc1cc(-c2c3ccc(N4CCN(C)CC4)cc3nn2C)cc2c1C(=O)N(CC(F)(F)F)CC2 [Comparative Example 8, 8-methoxy-6-(2-methyl-6-(4-methylpiperazin-1-yl)-2H-indazol-3-yl)-2-(2,2,2-trifluoroethyl)-3,4-dihydroisoquinolin-1(2H)-one, reference compound] | > 10000 | 683 | 887 |
| COc1cc(-c2c3c(C#N)cc(-c4cnn(C)c4)cc3nn2C)cc(OC(F)F)c1C(=O)N[C@@H]1C[C@@H]1F [Example 1, 4-[4-cyano-2-methyl-6-(1-methylpyrazol-4-yl)indazol-3-yl]-2-(difluoromethoxy)-N-[(1R,2S)-2-fluorocyclopropyl]-6-methoxybenzamide] | 5.9 | 2.1 | 2.2 |
| COc1cc(-c2c3c(OC)cc(-c4cnn(C)c4)cc3nn2C)cc(OC(F)F)c1C(=O)N[C@@H]1C[C@@H]1F [Example 2, 2-(difluoromethoxy)-N-[(1R,2S)-2-fluorocyclopropyl]-6-methoxy-4-[4-methoxy-2-methyl-6-(1-methylpyrazol-4-yl)indazol-3-yl]benzamide] | 19.8 | 8.3 | 7.8 |
| COc1cc(-c2c3c(OCCCO)cc(-c4cnn(C)c4)cc3nn2C)cc(OC(F)F)c1C(=O)N[C@@H]1C[C@@H]1F [Example 4, 2-(difluoromethoxy)-N-[(1R,2S)-2-fluorocyclopropyl]-4-[4-(3-hydroxypropoxy)-2-methyl-6-(1-methylpyrazol-4-yl)indazol-3-yl]-6-methoxybenzamide] | 5 | 8.9 | 11.5 |
| COc1cc(-c2c3c(OC(F)F)cc(-c4cnn(C)c4)cc3nn2C)cc(OC(F)F)c1C(=O)N[C@@H]1C[C@@H]1F [Example 5, 2-(difluoromethoxy)-4-[4-(difluoromethoxy)-2-methyl-6-(1-methylpyrazol-4-yl)indazol-3-yl]-N-[(1R,2S)-2-fluorocyclopropyl]-6-methoxybenzamide] | 10.8 | 5 | 7.6 |
| COc1cc(-c2c3c(OCc4ccccc4)cc(-c4cnn(C)c4)cc3nn2C)cc(OC(F)F)c1C(=O)N[C@@H]1C[C@@H]1F [Example 6, 2-(difluoromethoxy)-N-[(1R,2S)-2-fluorocyclopropyl]-6-methoxy-4-[2-methyl-6-(1-methylpyrazol-4-yl)-4-phenylmethoxyindazol-3-yl]benzamide] | 2.8 | 7.1 | 8.4 |
| COc1cc(-c2c3c(OC)cc(-c4cnn(C)c4)cc3nn2C)cc(OC(F)F)c1C(=O)N1CC(O)(C(F)(F)F)C1 [Example 13, [2-(difluoromethoxy)-6-methoxy-4-[4-methoxy-2-methyl-6-(1-methylpyrazol-4-yl)indazol-3-yl]phenyl]-[3-hydroxy-3-(trifluoromethyl)azetidin-1-yl]methanone] | 4.6 | 7.2 | 3.8 |
| CCn1cc(-c2cc(C#N)c3c(-c4cc(OC)c(C(=O)N5CC(O)(C(F)(F)F)C5)c(OC(F)F)c4)n(C)nc3c2)cn1 [Example 15, 3-[3-(difluoromethoxy)-4-[3-hydroxy-3-(trifluoromethyl)azetidin-1-carbonyl]-5-methoxyphenyl]-6-(1-ethylpyrazol-4-yl)-2-methylindazole-4-carbonitrile] | 9.2 | 10.3 | 1.4 |

Continued by falling IC50 (GST-tagged SIK1), values first:

| IC50 (GST-tagged SIK1) [nM] | IC50 (GST-tagged SIK2) [nM] | IC50 (GST-tagged SIK3) [nM] | SMILES |
| --- | --- | --- | --- |
| 7600 | 369 | 198 | COc1cc(-c2c3ccc(OCCN4CCOCC4)cc3nn2C)cc(OC(F)F)c1C(=O)NC1CC1 [Comparative Example 7, N-cyclopropyl-2-(difluoromethoxy)-6-methoxy-4-(2-methyl-6-(2-morpholinoethoxy)-2H-indazol-3-yl)benzamide, reference compound] |
| 5220 | 102 | 42 | COc1cc(-c2cnn3cc(OCCN4CCOCC4)ccc23)cc2c1C(=O)N(CC(F)(F)F)CC2 [Comparative Example 6, 8-methoxy-6-[6-(2-morpholinoethoxy)pyrazolo[1,5-a]pyridin-3-yl]-2-(2,2,2-trifluoroethyl)-3,4-dihydroisoquinolin-1-one, reference compound] |
| 17.1 | 16.2 | 12.4 | COc1cc(-c2c3c(C#N)cc(-c4cnn(C)c4)cc3nn2C)cc(OC(F)F)c1C(=O)N1CC(O)(C(F)(F)F)C1 [Example 7, 3-[3-(difluoromethoxy)-4-[3-hydroxy-3-(trifluoromethyl)azetidin-1-carbonyl]-5-methoxyphenyl]-2-methyl-6-(1-methylpyrazol-4-yl)indazole-4-carbonitrile] |
| 16.2 | 12.2 | 10 | COc1cc(-c2c3c(C#N)cc(-c4cnn(C)c4)cc3nn2C)cc(OC(F)F)c1C(=O)N1CC(OC(F)F)C1 [Example 9, 3-[3-(difluoromethoxy)-4-[3-(difluoromethoxy)azetidine-1-carbonyl]-5-methoxyphenyl]-2-methyl-6-(1-methylpyrazol-4-yl)indazole-4-carbonitrile] |
| 13.8 | 7.3 | 6.3 | COc1cc(-c2c3c(C#N)cc(-c4cnn(C)c4)cc3nn2C)cc(OC(F)F)c1C(=O)NCC1CC1(F)F (stereo not drawn) [Example 10] |
| 12.4 | 7 | 7 | COc1cc(-c2c3c(C#N)cc(-c4cnn(C)c4)cc3nn2C)cc(OC(F)F)c1C(=O)NCC1(F)CC1 [Example 12, 4-[4-cyano-2-methyl-6-(1-methylpyrazol-4-yl)indazol-3-yl]-2-(difluoromethoxy)-N-[(1-fluorocyclopropyl)methyl]-6-methoxybenzamide] |
| 9.8 | 12.3 | 2.4 | COc1cc(-c2c3c(C(F)F)cc(-c4cnn(C)c4)cc3nn2C)cc(OC(F)F)c1C(=O)N[C@@H]1CC1(F)F [Example 11, N-[(1R)-2,2-difluorocyclopropyl]-2-(difluoromethoxy)-4-[4-(difluoromethyl)-2-methyl-6-(1-methylpyrazol-4-yl)indazol-3-yl]-6-methoxybenzamide] |
| 7.6 | 4.5 | 2.3 | COc1cc(-c2c3c(C(F)F)cc(-c4cnn(C)c4)cc3nn2C)cc(OC(F)F)c1C(=O)N[C@@H]1C[C@@H]1F [Example 3, 2-(difluoromethoxy)-4-[4-(difluoromethyl)-2-methyl-6-(1-methylpyrazol-4-yl)indazol-3-yl]-N-[(1R,2S)-2-fluorocyclopropyl]-6-methoxybenzamide] |
| 7.2 | 9.7 | 5.8 | COc1cc(-c2c3c(C#N)cc(-c4cnn(C)c4)cc3nn2C)cc(OC(F)F)c1C(=O)N1CC(C)(C(F)F)C1 [Example 8, 3-[3-(difluoromethoxy)-4-[3-(difluoromethyl)-3-methylazetidin-1-carbonyl]-5-methoxyphenyl]-2-methyl-6-(1-methylpyrazol-4-yl)indazole-4-carbonitrile] |
| 3.6 | 8.8 | 2.4 | COc1cc(-c2c3c(OC(F)F)cc(-c4cnn(C)c4)cc3nn2C)cc(OC(F)F)c1C(=O)N1CC(O)(C(F)(F)F)C1 [Example 14, [2-(difluoromethoxy)-4-[4-(difluoromethoxy)-2-methyl-6-(1-methylpyrazol-4-yl)indazol-3-yl]-6-methoxyphenyl]-[3-hydroxy-3-(trifluoromethyl)azetidin-1-yl]methanone] |
